Measured values as given in patent US20170224688A1, “Methods of Using BTK Inhibitors to Treat Dermatoses” (Acerta Pharma B.V., priority 2016, published 2017).

Assays:
[1] = system: signals through the B cell receptor; experiment: In vitro potency in whole blood: CD69 on CD19+ B cells after anti-human IgD; format: cell-based; conditions: blood of four healthy donors, 2 h with compound, anti-human IgD 10 μg/mL 18 h, flow cytometry, read-out: EC50, inhibition of CD69 on gated CD19+ B cells in whole blood
Method: Blood from four healthy donors was incubated for 2 hours with the compounds shown over a concentration range, and then stimulated with anti-human IgD [10 μg/mL] for 18 hours. The mean fluorescent intensity (MFI) of CD69 (and CD86, data not shown) on gated CD19+ B cells was measured by flow cytometry.

psoriasis [2] = conditions: patients treated for malignancies; cited from earlier work
[3] = system: BCR activation markers CD69 and CD86; experiment: In vivo potency: BCR activation markers after oral gavage; conditions: mice gavaged, sacrificed 3 h post-dose, BCR stimulated with IgM, flow cytometry (FIG. 1)
Method: Mice were gavaged at increasing drug concentration and sacrificed at one time point (3 h post-dose). BCR is stimulated with IgM and the expression of activation markers CD69 and CD86 are monitored by flow cytometry to determine EC50's.
CD86 and CD69 are cell surface proteins that are BCR activation markers. […] BCR was stimulated with IgM and the expression of activation marker CD69 and CD86 are monitored by flow cytometry and to determine EC50 values.

[4] = Oral bioavailability (preclinical characteristics); conditions: in vivo
From the text: (§1) Clinical studies have shown that targeting the BCR signaling pathway by inhibiting BTK produces significant clinical benefit in patients with various types of leukemias and lymphomas.

CYP enzymes = experiment: Nonclinical CYP interaction studies; format: in vitro ADME
EGFR = EGFR (Homo sapiens, UniProt P00533); experiment: EGF-induced EGFR phosphorylation in A431 cells (phosphoflow cytometry); conditions: at 10 μM, A431 human epidermoid cancer cell line
EGFR, sequence (P00533 25-1210): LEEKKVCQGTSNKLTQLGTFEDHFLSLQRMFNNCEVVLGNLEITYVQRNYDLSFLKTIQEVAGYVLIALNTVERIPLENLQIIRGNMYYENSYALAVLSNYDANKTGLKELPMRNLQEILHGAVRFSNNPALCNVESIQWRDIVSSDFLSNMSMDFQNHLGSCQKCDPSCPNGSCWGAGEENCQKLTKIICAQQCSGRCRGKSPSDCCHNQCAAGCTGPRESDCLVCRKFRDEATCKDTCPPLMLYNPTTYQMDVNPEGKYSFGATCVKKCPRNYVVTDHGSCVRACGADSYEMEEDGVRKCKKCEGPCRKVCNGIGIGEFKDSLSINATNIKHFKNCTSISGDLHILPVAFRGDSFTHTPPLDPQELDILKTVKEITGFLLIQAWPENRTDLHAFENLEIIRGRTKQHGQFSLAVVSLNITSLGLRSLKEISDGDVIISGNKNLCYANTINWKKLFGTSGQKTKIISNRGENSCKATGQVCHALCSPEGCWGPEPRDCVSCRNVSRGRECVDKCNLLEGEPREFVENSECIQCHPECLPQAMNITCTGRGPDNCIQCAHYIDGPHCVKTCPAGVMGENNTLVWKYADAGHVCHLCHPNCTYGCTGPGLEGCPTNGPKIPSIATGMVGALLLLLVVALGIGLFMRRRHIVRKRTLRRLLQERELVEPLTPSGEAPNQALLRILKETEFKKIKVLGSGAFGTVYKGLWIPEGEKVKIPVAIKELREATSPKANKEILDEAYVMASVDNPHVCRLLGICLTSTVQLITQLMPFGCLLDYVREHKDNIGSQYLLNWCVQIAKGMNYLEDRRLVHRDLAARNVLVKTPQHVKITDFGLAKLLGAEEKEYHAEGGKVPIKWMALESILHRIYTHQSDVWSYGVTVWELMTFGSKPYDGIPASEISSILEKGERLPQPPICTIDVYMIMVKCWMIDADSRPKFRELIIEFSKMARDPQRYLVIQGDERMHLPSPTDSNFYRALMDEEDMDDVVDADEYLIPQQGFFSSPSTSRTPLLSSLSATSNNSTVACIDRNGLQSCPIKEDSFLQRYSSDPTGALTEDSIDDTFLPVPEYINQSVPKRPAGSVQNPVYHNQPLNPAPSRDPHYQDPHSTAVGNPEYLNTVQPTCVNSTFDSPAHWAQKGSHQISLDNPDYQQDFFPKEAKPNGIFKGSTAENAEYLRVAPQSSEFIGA

[5] = Study of respiratory function (GLP safety pharmacology); conditions: rats, doses through 300 mg/kg (highest dose level)
[6] = Preliminary evaluation of metabolism in plasma, bile, and urine; format: in vivo; conditions: rats, dogs, monkeys; preliminary evaluations
[7] = Glutathione binding and depletion in vitro; format: in vitro ADME
psoriasis [8] = experiment: Clinical observation of psoriasis in CLL patients on study drug; format: in vivo, human
From the text: as §1
The secondary objective of the clinical study is to evaluate tumor responses in patients treated with Formula (II).
The study scheme is a sequential cohort escalation. Each cohort consists of six subjects. The sample size of the study is 24 to 36 subjects, depending on dose escalation into subsequent cohorts. […] The dose level for Cohort 6 will be determined based on the safety and efficacy of Cohorts 1 to 5, and will not exceed 900 mg/day. Escalation will end with either the MTD cohort or three levels above full BTK occupancy, whichever is observed first. An additional arm of the study will explore 100 mg BID dosing.
The color of the capsules is Swedish orange. The route of administration is oral (per os, or PO). The dose regimen is once daily or twice daily, as defined by the cohort, on an empty stomach (defined as no food 2 hours before and 30 minutes after dosing).
(§2) Subject 1 in the clinical study of Example 12 is a CLL patient with a history of psoriatic skin disease. Subject 1 had psoriasis, without involvement of joints, and with diffuse plaques on their trunk and extremities. Their psoriasis was severe, with ˜30% body surface area (BSA) affected (>10% BSA is considered severe disease). They were treated over time with several systemic therapies including etanercept, adalimumab, and a 2010 clinical study of an experimental agent.
When treatment with Formula (2) was initiated, Subject 1's skin symptoms started to improve rapidly. […] By Cycle 10 (10 months on Formula (2)), their skin was clear. […] The only remainder was some scaling in the same areas that were once affected by psoriasis lesions.
Subject 2 was enrolled in a clinical study similar to that described above, and also experienced resolution of moderate-to-severe plaque psoriasis (a “florid” case) while on treatment with Formula (2). The subject's disease history included extensive body surface area involvement, mainly on the back and thighs, for most of their adult life.

hepatocytes = experiment: In vitro metabolism in hepatocytes with 14C-labeled drug; format: in vitro ADME, mouse, rat, dog, rabbit, monkey, and human
CYP3A4 = CYP3A4 (Homo sapiens, UniProt P08684); experiment: Loss of parent drug as catalyzed by CYPs; format: in vitro ADME; conditions: in vitro
CYP3A4, sequence (P08684 whole entry, species assumed): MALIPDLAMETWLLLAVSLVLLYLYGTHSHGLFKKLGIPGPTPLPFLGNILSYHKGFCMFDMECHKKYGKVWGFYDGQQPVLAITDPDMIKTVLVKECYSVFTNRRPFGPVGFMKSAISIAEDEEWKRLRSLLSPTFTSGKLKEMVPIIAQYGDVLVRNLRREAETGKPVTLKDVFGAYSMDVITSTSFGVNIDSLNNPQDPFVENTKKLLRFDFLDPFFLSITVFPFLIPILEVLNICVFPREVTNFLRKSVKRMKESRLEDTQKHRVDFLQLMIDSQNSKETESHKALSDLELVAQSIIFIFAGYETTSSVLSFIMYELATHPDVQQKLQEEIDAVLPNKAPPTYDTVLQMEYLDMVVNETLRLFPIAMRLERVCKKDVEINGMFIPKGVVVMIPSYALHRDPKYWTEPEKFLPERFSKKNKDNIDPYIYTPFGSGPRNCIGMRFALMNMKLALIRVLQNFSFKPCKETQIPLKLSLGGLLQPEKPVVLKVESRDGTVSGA

hematologic malignancies = conditions: cited from earlier work
psoriasis [9] = experiment: Treatment history of Subject 1's psoriasis; format: in vivo, human; conditions: Subject 1, before enrolling in the clinical study
Method: as §2

C=CC(=O)Nc1cccc(Nc2nc(Nc3ccc(OCCOC)cc3)ncc2F)c1 [CC-292, N-(3-((5-fluoro-2-((4-(2-methoxyethoxy)phenyl)amino)pyrimidin-4-yl)amino)phenyl)acrylamide]
EC50 [1]: 121 nM

Cc1nc(Nc2ncc(C(=O)Nc3c(C)cccc3Cl)s2)cc(N2CCN(CCO)CC2)n1 [Dasatinib]
effect on psoriasis / skin (psoriasis [2]): has not been reported to improve psoriasis

CC#CC(=O)N1CCC[C@H]1c1nc(-c2ccc(C(=O)Nc3ccccn3)cc2)c2c(N)nccn12 [Formula (II), (S)-4-(8-amino-3-(1-(but-2-ynoyl)pyrrolidin-2-yl)imidazo[1,5-a]pyrazin-1-yl)-N-(pyridin-2-yl)benzamide]
in vivo potency at inhibiting expression of activation markers CD69 and CD86 [3]: more potent at inhibiting expression of activation makers than ibrutinib
oral bioavailability [4]: significant oral bioavailability
EC50 [1]: 8.2 nM
drug-drug interaction potential through CYP enzymes (CYP enzymes): very unlikely to cause clinical drug-drug interactions
inhibition of in vitro EGFR phosphorylation (EGFR): no inhibition
respiratory function [5]: no treatment-related adverse effects
metabolic processes in plasma, bile, and urine [6]: oxidation, glutathione binding, and hydrolysis
glutathione binding and depletion [7]: binds to glutathione but does not deplete glutathione
psoriasis skin symptoms, first month of therapy (psoriasis [8]; Subject 1, CLL patient with severe psoriasis (~30% BSA), oral): some improvement
psoriasis, first 6 months of treatment (psoriasis [8]; Subject 1, oral): mostly resolved
skin status by Cycle 10 (10 months) (psoriasis [8]; Subject 1, oral): clear
moderate-to-severe plaque psoriasis after start of treatment (psoriasis [8]; Subject 2, similar clinical study): cleared quickly
unique human metabolite (hepatocytes; hepatocytes of six species): No unique human metabolite was identified
metabolites in hepatocytes (hepatocytes; mouse, rat, dog, rabbit, monkey, human hepatocytes, 14C-labeled drug): two mono-oxidized metabolites and a glutathione conjugate
metabolizing CYP (loss of parent drug) (CYP3A4): metabolized by CYP3A4

C=CC(=O)N1CCC[C@@H](n2nc(-c3ccc(Oc4ccccc4)cc3)c3c(N)ncnc32)C1 [Ibrutinib, 1-[(3R)-3-[4-amino-3-(4-phenoxyphenyl)-1H-pyrazolo[3,4-d]pyrimidin-1-yl]piperidin-1-yl]prop-2-en-1-one]
antitumor activity (hematologic malignancies; subjects with heavily pretreated non-Hodgkin lymphoma): substantial antitumor activity
maximum tolerated dose (MTD) (hematologic malignancies; within the tested dose range (through 840 mg)): No maximum tolerated dose (MTD) was apparent
EC50 [1]: 6.1 nM

Cc1ccc(C(=O)Nc2ccc(CN3CCN(C)CC3)c(C(F)(F)F)c2)cc1C#Cc1cnc2cccnn12 [Ponatinib]
effect on psoriasis / skin (psoriasis [2]): causes an extreme degree of skin drying and induces an almost psoriasis-like disease

Cc1ccc(NC(=O)c2ccc(CN3CCN(C)CC3)cc2)cc1Nc1nccc(-c2cccnc2)n1 [imatinib]
effect on psoriasis / skin (psoriasis [2]): may cause worsening of psoriasis

etanercept
response of psoriasis to earlier therapy (psoriasis [9]): initially responded
